Test results taken from article PMC6938011, “Antiplasmodial profile of selected compounds from Malaria Box: in vitro evaluation, speed of action and drug combination studies” (Malaria Journal, 2019).
“Also recorded” adds a separate entry of the source. Like-named read-outs stand apart in the source and are kept apart here.

Experiments:
[1] = tested on: Hepatocarcinoma cells (HepG2); assay: Cytotoxicity evaluation, MTT assay; assay type: cell-based, human; details: HepG2, 72 h, read-out: IC50^HepG2, MTT Average (confidence interval-95%)
Description: (§1) Hepatocarcinoma cells (HepG2) were cultivated in RPMI medium supplemented with 10% (v/v) fetal bovine serum and 0.2% (v/v) penicillin/streptomycin. The antibiotics were added to the medium to eliminate the potential interference of microbial contamination. Cells were cultivated at 37 °C and 5% CO2; the supplemented medium was changed every 2 days.
(§2) For the experimental procedures, cells were trypsinized and transferred to a 96-well plate at 30,000 cells per well and incubated at 37 °C overnight for cell adhesion. Then, serial dilutions of the inhibitor candidates were added to the plate. Cells without any compounds were used as positive growth controls. The plate was incubated at 37 °C and 5% CO2 for 72 h. After incubation, the highest compound concentration to be considered (highest concentration without precipitation) was observed by microscopy. Cytotoxicity was evaluated by two different methods. The first is a colorimetric assay based on metabolic cell activity in the presence of 3-(4,5-dimethylthiazol-2-yl)-2,5-diphenyltetrazolium bromide (MTT). Briefly, mitochondrial enzymes can convert the MTT dye into the purple insoluble compound formazan. To each well, 20 µL MTT at 5 mg/mL was added, followed by incubation at 37 °C for 3 to 5 h. After incubation, the supernatant was removed, and formazan crystals were solubilized in 100 µL DMSO. The absorbance, which is proportional to the number of viable cells, was determined using a SpectraMAX Plus 384 plate reader (Molecular Devices Corp., Sunnyvale, CA) (λ = 570 nm). The second method is based on the uptake of neutral red, a dye that is retained inside the lysosomes of viable cells. To each well, after removal of culture media, 200 µL neutral red medium 40 µg/mL was added, followed by incubation at 37 °C for 3 to 5 h. After incubation, supernatant was dispensed, and 200 µL 0.5% (v/v) formaldehyde in 1% (m/v) CaCl2 was added to remove excess of the dye for 5 min. Supernatant was dispensed, and 100 µL alcohol-acid solution (50% (v/v) ethanol, 1% (v/v) glacial acetic acid) was added, and the plate was stirred until a homogeneous solution was formed. The absorbance was determined using a SpectraMAX Plus 384 plate reader (Molecular Devices Corp., Sunnyvale, CA) (λ = 540 nm). For both methods, the half maximal inhibitory concentration (IC50^HepG2) was determined by non-linear regression analysis of the resulting concentration-response curve using the software Origin 2016 (OriginLab Corporation).

[2] = tested on: P. falciparum; details: cited from earlier work
[3] = tested on: Hepatocarcinoma cells (HepG2); assay: Cytotoxicity evaluation, neutral red assay; assay type: cell-based, human; details: HepG2, 72 h, read-out: IC50^HepG2, NR Average (confidence interval-95%)
Description: as §1, §2

[4] = tested on: P. falciparum 3D7 strain; set-up: method as in PMID 23798988; details: reported potency of Malaria Box compounds ref 13, read-out: Reported IC50^Pf; cited from earlier work
[5] = tested on: P. falciparum; assay: Combination assays, isobologram analysis (FIC50 pairs); assay type: cell-based, Plasmodium falciparum; details: for Isobologram data, Additive: fraction of FIC50 pairs / Isobologram data, Additive: number of FIC50 pairs / Isobologram data, Antagonistic: number of FIC50 pairs / Isobologram data, Synergic: number of FIC50 pairs / Isobologram data, Antagonistic: fraction of FIC50 pairs: combination with artesunate; for Combination profile with artesunate: isobologram, IC50 equivalent ratios 1:4, 2:3, 1:1, 3:2, 4:1
Description: Combinations of anti-malarial candidates with artesunate, an artemisinin derivative, were tested in fixed molar ratios based on the individual IC50 values that were previously determined by the SYBR Green I assay. Traditionally, a line (isobole) of additivity is used to distinguish between additive, synergic, and antagonistic interaction profiles. […] Thus, a systematic consideration of additivity ranges was included in the isobologram analysis, as previously described by Grabovsky and Tallarida. Concentration-response curves of individual compounds were used in the calculation of each pair’s additivity range (area within the upper and lower limits in Figs. 4 and 5). Fractional inhibitory concentration (FIC50) pairs plotted as points inside the additivity range indicate the expected sum of each compound effect, while points above and below the range indicate antagonistic and synergic interactions, respectively. The selected inhibitors were combined with artesunate in the IC50 equivalent ratios of 1:4, 2:3, 1:1, 3:2 and 4:1 for the construction of the isobolograms.

[6] = tested on: P. falciparum 3D7 strain; assay: SYBR Green I inhibition assay for the asexual stages of P. falciparum; assay type: cell-based, Plasmodium falciparum; details: 72 h, read-out: IC50^Pf Average (confidence interval-95%)
Description: The P. falciparum 3D7 strain was kept in culture in a humidified incubator at 37 °C in RPMI-1640 medium with 25 mM NaHCO3, 25 mM HEPES (pH 7.4), 11 mM D-glucose, 3.67 mM hypoxanthine and 25 µg/mL gentamicin, supplemented with 0.5% (m/v) AlbuMAX II. The culture medium was changed daily, and the parasitaemia was maintained below 10% with 2.5% haematocrit in human erythrocytes.
The parasites were synchronized through sterile 5% (m/v) D-sorbitol treatment over 10 min at 37 °C for the enrichment of ring-stage parasites. The cultures were pelleted by centrifugation at 600×g over 5 min. The parasitaemia was determined by microscope analysis of thin blood smears stained with Giemsa 10% (v/v) after methanol fixation. The initial parasitaemia was calculated from 1000 red blood cells (RBCs), and cultures were diluted to 0.5% parasitaemia and 2% haematocrit by adding the appropriate volumes of erythrocytes and medium. Parasite aliquots of 180 µL were distributed into 96-well plates previously prepared with 20 µL aliquots of a tenfold concentrated compound. Negative and positive control wells corresponding to non-parasitized erythrocytes and parasite cultures in the absence of compounds were set in parallel. The DMSO concentration was maintained below 0.05% (v/v). The plates were incubated for 72 h at 37 °C in a humidified incubator with a gas mixture of 90% N2, 5% O2 and 5% CO2. After incubation, the culture medium was removed, and the cells were resuspended in 100 µL PBS buffer (116 mM NaCl, 10 mM Na2HPO4, 3 mM KH2PO4) and lysed with 100 µL lysis buffer (20 mM Tris base, 5 mM EDTA, 0.0008% (v/v) Triton X-100, 0.008% (m/v) saponin, pH 8.0) containing 0.002% (v/v) SYBR Green I. Plates were incubated at room temperature for 30 min, and the fluorescence corresponding to the parasitic density was determined using a SpectraMAX Gemini EM plate reader (Molecular Devices Corp., Sunnyvale, CA) (excitation at 485 nm, emission at 535 nm). The half maximal inhibitory concentration (IC50^Pf) was determined by non-linear regression analysis of the resulting concentration-response curve using the software Origin 2016 (OriginLab Corporation).

[7] = tested on: P. berghei NK65 strain; assay: In vivo suppressive parasite growth test against Plasmodium berghei; set-up: species or system Swiss outbred mice; details: 50 mg/kg oral gavage daily for 3 days, P. berghei-infected mice
Description: A suppressive parasite growth test was performed in mice infected with P. berghei NK65 strain (originally received from the New York University Medical School), as described previously, with some modifications. Briefly, adult Swiss outbred mice (20 ± 2 g weight) were intraperitoneally inoculated with 1 × 10^5 red blood cells infected with P. berghei. The infected mice were maintained together for at least 2 h and then randomized into groups of 5 animals per cage, which were subsequently administered 50 mg/kg of each compound diluted in 3% (v/v) DMSO by oral gavage daily for 3 days. Two control groups were used in parallel: one was treated with CQ (20 mg/kg) and the other was treated with the vehicle. Blood smears from mouse tails were prepared on days 5 and 7 post-infection and then fixed with methanol, stained with Giemsa 10% (v/v), and examined under the microscope.

[8] = set-up: method as in PMID 27467575; details: previous pharmacokinetics studies ref 30; cited from earlier work
[9] = tested on: asexual intraerythrocytic stages of P. falciparum; assay: Speed of action studies (microscopy of thin blood smears); assay type: cell-based, Plasmodium falciparum; details: ring-stage parasites; for Parasite morphology during incubation: compound at tenfold the IC50, microscopy up to 36 h; for Speed of action: compound at tenfold the IC50, observed 0-36 h
Description: Parasites in thin blood smears were observed by microscopy after 0, 8, 16, 24 and 36 h of incubation.

[10] = set-up: method as in PMID 27467575; details: previous pharmacokinetics studies ref 30; cited from earlier work; remark: listed apart in the source
[11] = tested on: bc1 complex; set-up: method as in PMID 27467575; details: mitochondrial electron transport chain ref 30; cited from earlier work
[12] = tested on: P. falciparum; assay: Combination assays, isobologram analysis (FIC50 pairs); assay type: cell-based, Plasmodium falciparum
[13] = Solubility in the cytotoxicity assay conditions; assay type: physicochemical; details: HepG2 cytotoxicity assay conditions
Description: For the experimental procedures, cells were trypsinized and transferred to a 96-well plate at 30,000 cells per well and incubated at 37 °C overnight for cell adhesion. Then, serial dilutions of the inhibitor candidates were added to the plate. Cells without any compounds were used as positive growth controls. The plate was incubated at 37 °C and 5% CO2 for 72 h. After incubation, the highest compound concentration to be considered (highest concentration without precipitation) was observed by microscopy. Cytotoxicity was evaluated by two different methods. The first is a colorimetric assay based on metabolic cell activity in the presence of 3-(4,5-dimethylthiazol-2-yl)-2,5-diphenyltetrazolium bromide (MTT). Briefly, mitochondrial enzymes can convert the MTT dye into the purple insoluble compound formazan. […] The absorbance, which is proportional to the number of viable cells, was determined using a SpectraMAX Plus 384 plate reader (Molecular Devices Corp., Sunnyvale, CA) (λ = 570 nm). […] The absorbance was determined using a SpectraMAX Plus 384 plate reader (Molecular Devices Corp., Sunnyvale, CA) (λ = 540 nm). For both methods, the half maximal inhibitory concentration (IC50^HepG2) was determined by non-linear regression analysis of the resulting concentration-response curve using the software Origin 2016 (OriginLab Corporation).

| SMILES | IC50 [4] [nM] | Isobologram data, Additive: fraction of FIC50 pairs [5] [%] | Isobologram data, Additive: number of FIC50 pairs [5] | Isobologram data, Antagonistic: number of FIC50 pairs [5] | Isobologram data, Synergic: number of FIC50 pairs [5] | Combination profile with artesunate [5] | IC50 [1] [nM] | Parasite morphology during incubation [9] | Speed of action [9] | IC50 [3] [nM] | Isobologram data, Antagonistic: fraction of FIC50 pairs [5] [%] | IC50 [6] [nM] | Combination profile with proguanil [12] | also measured |
| --- | --- | --- | --- | --- | --- | --- | --- | --- | --- | --- | --- | --- | --- | --- |
| C[C@H]1[C@H](OC(=O)CCC(=O)O)O[C@@H]2O[C@@]3(C)CC[C@H]4[C@H](C)CC[C@@H]1[C@@]24OO3 [Artesunate, reference compound] | 8 | 100 | 15 | 0 | 0 | Additivity |  |  |  |  |  |  |  | IC50 ([1]; Homo sapiens): 110000 nM; Speed of action (literature) ([2]; in vitro ref 34): fast; IC50 ([3]; Homo sapiens): 110000 nM; Combination profile with artesunate ([5]; listed as artesunate): additive; IC50 ([6]; Plasmodium falciparum): 17 nM |
| CCOC(=O)C1=C(C)N=c2sc(=Cc3cc(Cl)ccc3O)c(=O)n2C1c1ccc(OC)cc1 (centres unmarked) [Compound 2] | 489 | 92 | 12 | 1 | 0 | additive profile | 22000 | pyknotic nuclei formation | Fast | 22000 | 8 | 400 |  | % of reduction of parasitaemia, day 5 after infection [7]: 64%; % of reduction of parasitaemia, day 7 after infection [7]: 33%; Plasma protein binding [8]: > 99%; Combination profile with artesunate ([5]; listed as 02): Additivity; Oral bioavailability [10]: poor |
| O=C1c2ccccc2-c2nnc(-c3ccc(Br)cc3)cc21 [Compound 6] | 1070 | 15 | 2 | 11 | 0 |  | > 12500 | young trophozoites were observed after 36 h | slow-acting and Slow | > 12500 | 85 | 1200 | highly synergic | Combination profile with artesunate ([5]; listed as 06): Antagonism; Molecular target [11]: inhibitor of the mitochondrial electron transport chain targeting the bc1 complex |
| Cc1cc(NC(=O)c2ccc(-c3ccccc3)cc2)no1 [Compound 10] | 693 | 38 | 5 | 8 | 0 | antagonistic; also recorded: Antagonism |  | punctual shapes after 16 h | Fast |  | 62 | 850 |  | Solubility in the assay conditions [13]: low solubility |
| O=C1C(O)=C([C@H]2CC[C@H](c3ccc(Cl)cc3)CC2)C(=O)c2ccccc21 [atovaquone, reference compound] |  |  |  |  |  | antagonistic |  |  |  |  |  |  | synergic | Speed of action (literature) [2]: slow |
